The experiment has as its system E. coli JW3193 ΔNanT expressing SaSiaT. The experiment in a line: Growth of E. coli JW3193 ΔNanT expressing SaSiaT. Particulars: for effect on growth on sialic acid: 0.5 mM sialic acid + 1 mM inhibitor; for growth with inhibitor as only carbon source: 1 mM inhibitor. The experiment is classed as cell-based, Escherichia coli. The text has this: To further investigate bacterial growth inhibition, we employed a model system of E. coli JW3193 ΔNanT expressing the SaSiaT and PmSiaT transporters. We designed these experiments to test if compounds 3e and 3f could inhibit the Neu5Ac transport in vivo because, without an active sialic acid transporter, E. coli JW3193 ΔNanT cannot grow on Neu5Ac.[16],[21]
For the bacterial growth experiments, the pJ422-01 plasmid containing the relevant SiaT or NanT gene was transformed into the E. coli JW3193 ΔnanT strain.[21] Throughout the experiments, strains containing the pJ422-01 plasmid were grown in media supplemented with 25 μg/mL Zeocin. E. coli BW25113, empty E. coli JW3193, and E. coli JW3193 with pJ422-01 containing the NanT gene were also used as controls. Strains were initially plated out from glycerol stocks before a single colony was picked and grown overnight in low salt LB media at 37 °C, with shaking at 180 rpm. Overnight cultures were diluted to an OD600 of 0.05 using low salt LB [supplemented with 1 mM isopropyl β-D-1-thiogalactopyranoside (IPTG)], before they were incubated at 37 °C, with shaking at 250 rpm, until they reached an OD600 of 0.3. At this point, 5 mL of each culture was centrifuged at 6000g for 5 min at 25 °C. The supernatants were removed and the cell pellets were resuspended in 5 mL of M9 MM without glucose prior to being centrifuged again at 6000g for 5 min at 25 °C. This wash step was repeated twice more before cells were resuspended to an OD600 of 0.5 in M9 MM without glucose. A Corning Costar Flat Bottom 96 Well TC-treated microplate was set up with 180 μL of M9 MM containing 1 mM IPTG (for the pJ422-01 strains) and either 5 mM glucose, 0.5 mM sialic acid, and 0.5 mM sialic acid with 1 mM of either inhibitor, or 1 mM of either inhibitor as a carbon source. To the 180 μL of media, 20 μL of each culture were added to the plate (OD600 of 0.05), before it was loaded into a FLUOstar Omega microplate reader (BMG Labtech). Growth was recorded at 600 nm every 10 min at 37 °C, with shaking at 300 rpm. Growth curves represent the mean and standard deviation of measurement from triplicate measurements (glucose/no carbon source in duplicate).
Fig. S5. Growth of E. coli JW3193 ΔNanT expressing the SaSiaT and PmSiaT transporters from a plasmid and using various carbon sources and in the presence or absence of inhibitors, 3e and 3f. (A) SaSiaT is expressed from a plasmid in the E. coli strain JW3193 ΔNanT, where the native sialic acid transporter (NanT) is deleted. The strain grows normally when in media with glucose (black line). There is no growth in the absence of any carbon source (grey line). In the presence of sialic acid at 0.5 mM the strain grows to an OD of ~0.5 (red line), showing that the transporter is functional. There is no growth in the […]

“Also recorded” adds a separate entry of the source.

Take `CC(=O)NC1C(OCc2cc(F)cc(F)c2)CC(O)(C(=O)O)OC1C(O)C(O)CO` (stereo not shown) [Compound 3e]: the “effect on growth on sialic acid” value is listed as “no effect on growth; also recorded: neither inhibitor seemed to alter bacterial growth” and the “growth with inhibitor as only carbon source” value is given as “no growth”.

In the case of `CC(=O)NC1C(OCc2cc(Br)cc(Br)c2)CC(O)(C(=O)O)OC1C(O)C(O)CO` (stereo not shown) [Compound 3f], the “effect on growth on sialic acid” value is on record as “no effect on growth; also recorded: neither inhibitor seemed to alter bacterial growth” and the “growth with inhibitor as only carbon source” value is “no growth”.
